Test results reported in patent US20230114728A1 (Venatorx Pharmaceuticals, Inc., priority 2019, published 2023).
Converted amounts (≈) assume the structure as drawn.

Key:
[1] = tested on: P. aeruginosa PAO1; assay: Broth microdilution MIC in CAMHB; format: cell-based; settings: Pseudomonas aeruginosa, MHB, read-out: Minimum Inhibitory Concentration, P. aeruginosa PAO1
Experimental: To determine the ability of test compounds to inhibit the growth of bacterial strains, classic cell based broth microdilution minimum inhibitory concentration (MIC) assays were employed. MIC assays are performed according to CLSI methods except where otherwise noted (CLSI, 2018 and CLSI, 2019). The reference type strain E. coli ATCC 25922; the wild-type parent strain E. coli AG100; the hyper-permeable E. coli 901C and E. coli D22; and the E. coli AG100A strain lacking the acrAB efflux pump encoding genes were used to determine the ability of the PBP inhibitors to penetrate the outer membrane of gram-negative bacteria and inhibit bacterial growth. […] The P. aeruginosa ATCC 27853 and A. baumannii ATCC 19606, along with the hyper-permeable P. aeruginosa ATCC 35151 and an engineered efflux pump-compromised strain of P. aeruginosa (ΔmexAB-oprM) were used to determine the ability of PBP inhibitors to penetrate the outer membrane of P. aeruginosa and A. baumannii and assess antibacterial activity against these important gram-negative organisms.
Briefly, cryo-preserved bacterial cultures of challenge strains are streaked for isolation on appropriate agar medium, in this case cation-adjusted Mueller Hinton agar. Following incubation to allow growth of the colonies, plates are sealed with parafilm and stored refrigerated for up to two weeks. For preparation of assay inoculum and to ensure low variability, at least 5 colonies are picked from the agar plates with an inoculating loop and aseptically transferred to a culture tube containing 3 mL of cation-adjusted Mueller Hinton broth (CAMHB). The broth culture is grown for 3-5 hours at 37° C. with shaking at 200 rpm. Meanwhile, 2-fold serial dilutions of test compounds are conducted in a 96-well plate with a final volume of 75 μL per well at 2-fold the final desired concentration. After the dilution plates are set up the growing cultures are then diluted in a cuvette containing CAMHB and the optical density is measured at 600 nm. The inoculum is diluted such that 75 μL of this culture in CAMHB results in a starting bacterial concentration of 2-8×10^5 CFU/mL when added to the dilution plates. The plates are incubated for 16-20 hours for Enterobacteriaceae and Pseudomonas and 20-24 hours for Acinetobacter at 37° C. The MIC values are read visually as the lowest concentration well with no bacterial growth.

[2] = biological target: T1, E. coli K12 PBP3 (Escherichia coli, UniProt P0AD68); assay: biochemical; format: binding
T1 construct: made in house
T1 sequence (P0AD68 1-577): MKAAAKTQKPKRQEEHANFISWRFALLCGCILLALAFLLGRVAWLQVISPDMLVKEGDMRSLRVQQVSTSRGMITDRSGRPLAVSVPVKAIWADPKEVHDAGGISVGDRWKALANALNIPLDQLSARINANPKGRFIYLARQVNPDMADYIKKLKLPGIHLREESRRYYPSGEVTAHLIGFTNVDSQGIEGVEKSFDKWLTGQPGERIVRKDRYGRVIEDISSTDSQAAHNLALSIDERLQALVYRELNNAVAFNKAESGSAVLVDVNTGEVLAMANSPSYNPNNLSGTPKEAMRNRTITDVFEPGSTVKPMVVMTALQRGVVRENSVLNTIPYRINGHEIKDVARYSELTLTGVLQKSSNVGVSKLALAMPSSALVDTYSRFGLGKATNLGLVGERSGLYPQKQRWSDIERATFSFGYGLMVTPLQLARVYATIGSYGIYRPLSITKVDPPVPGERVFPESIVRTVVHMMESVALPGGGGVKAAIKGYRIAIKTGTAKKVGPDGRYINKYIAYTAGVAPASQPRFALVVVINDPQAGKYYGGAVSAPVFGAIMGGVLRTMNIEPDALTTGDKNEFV
Summary of the method: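 Fluorescence polarization (ex 490/em 520 nm) competition of inhibitors against Bocillin-FL at 0.1 μM, read up to 60 min. Final PBP levels: E. coli PBP3 1.5 μM; A. baumannii PBP2 2.5 μM, PBP3 0.2 μM in Tris pH 8.0/NaCl/glycerol/Tween 20; N. gonorrhoeae PBP2 […] in Hepes pH 8.0/NaCl/glycerol. EC50 = concentration halving PBP-bound Bocillin-FL.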

[3] = tested on: E. coli ATCC 25922; assay: Broth microdilution MIC in CAMHB; format: cell-based; settings: Escherichia coli, ATCC25922; E. coli ATCC 25922; MHB; read-out: Minimum Inhibitory Concentration, E. coli 25922
Summary of the method: (§1)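 Colonies from cation-adjusted Mueller Hinton agar are grown in broth (3-5 h, 37° C), adjusted by OD600, and added at 2-8×10^5 CFU/mL to 2-fold compound dilutions. After 16-20 h at 37° C, the lowest concentration without growth is taken as MIC.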

[4] = tested on: P. aeruginosa (ΔmexAB-oprM); assay: Broth microdilution MIC in CAMHB; format: cell-based; settings: Pseudomonas aeruginosa, read-out: Minimum Inhibitory Concentration, P. aeruginosa ΔmexAB-OprM
Summary of the method: as §1

[5] = tested on: K. pneumoniae SI-117 producing VIM-1; assay: Broth microdilution MIC in CAMHB; format: cell-based; settings: Klebsiella pneumoniae, read-out: Minimum Inhibitory Concentration, K. pneumoniae SI-117
Summary of the method: as §1

[6] = tested on: E. coli 901C; assay: Broth microdilution MIC in CAMHB; format: cell-based; settings: Escherichia coli; E. coli 901C (hyper-permeable); MHB; read-out: Minimum Inhibitory Concentration, E. coli 901C
Summary of the method: as §1

[7] = tested on: E. coli D22; assay: Broth microdilution MIC in CAMHB; format: cell-based; settings: Escherichia coli; E. coli D22 (hyper-permeable); MHB; read-out: Minimum Inhibitory Concentration, E. coli D22
Summary of the method: as §1

[8] = tested on: K. pneumoniae 848844 producing SHV-11 and KPC-2; assay: Broth microdilution MIC in CAMHB; format: cell-based; settings: Klebsiella pneumoniae, read-out: Minimum Inhibitory Concentration, K. pneumoniae 848844
Summary of the method: as §1

[9] = tested on: P. aeruginosa ATCC 35151; assay: Broth microdilution MIC in CAMHB; format: cell-based; settings: Pseudomonas aeruginosa, ATCC35151; MHB; hyper-permeable strain; read-out: Minimum Inhibitory Concentration, P. aeruginosa ATCC 35151
Summary of the method: as §1

[10] = tested on: E. coli AG100; assay: Broth microdilution MIC in CAMHB; format: cell-based; settings: Escherichia coli; E. coli AG100 (wild-type parent); MHB; read-out: Minimum Inhibitory Concentration, E. coli AG100
Summary of the method: as §1

[11] = tested on: E. coli AG100A; assay: Broth microdilution MIC in CAMHB; format: cell-based; settings: Escherichia coli, read-out: Minimum Inhibitory Concentration, E. coli AG100A
Summary of the method: as §1

[12] = tested on: K. pneumoniae UMM producing SHV-5 and KPC-2; assay: Broth microdilution MIC in CAMHB; format: cell-based; settings: Klebsiella pneumoniae, read-out: Minimum Inhibitory Concentration, K. pneumoniae UMM
Summary of the method: as §1

[13] = tested on: A. baumannii ATCC 19606; assay: Broth microdilution MIC in CAMHB; format: cell-based; settings: Acinetobacter baumannii, ATCC19606; MHB; read-out: Minimum Inhibitory Concentration, A. baumannii ATCC 19606
Summary of the method: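 Lowest compound concentration with no visible growth after 16-20 h at 37 °C defines MIC. Plates of 2-fold serial dilutions in cation-adjusted Mueller Hinton broth received 2-8×10^5 CFU/mL of exponentially grown cells, per CLSI methods; panel spans reference, hyper-permeable and efflux-pump-deleted strains.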

[14] = biological target: T2, P. aeruginosa PBP3 (Pseudomonas aeruginosa, UniProt G3XD46); assay: Bocillin-FL fluorescence polarization competition binding assay, P. aeruginosa PBP3; settings: fluorescence polarization competition binding assay using Bocillin-FL
T2 construct: made in house
T2 sequence (G3XD46 whole entry): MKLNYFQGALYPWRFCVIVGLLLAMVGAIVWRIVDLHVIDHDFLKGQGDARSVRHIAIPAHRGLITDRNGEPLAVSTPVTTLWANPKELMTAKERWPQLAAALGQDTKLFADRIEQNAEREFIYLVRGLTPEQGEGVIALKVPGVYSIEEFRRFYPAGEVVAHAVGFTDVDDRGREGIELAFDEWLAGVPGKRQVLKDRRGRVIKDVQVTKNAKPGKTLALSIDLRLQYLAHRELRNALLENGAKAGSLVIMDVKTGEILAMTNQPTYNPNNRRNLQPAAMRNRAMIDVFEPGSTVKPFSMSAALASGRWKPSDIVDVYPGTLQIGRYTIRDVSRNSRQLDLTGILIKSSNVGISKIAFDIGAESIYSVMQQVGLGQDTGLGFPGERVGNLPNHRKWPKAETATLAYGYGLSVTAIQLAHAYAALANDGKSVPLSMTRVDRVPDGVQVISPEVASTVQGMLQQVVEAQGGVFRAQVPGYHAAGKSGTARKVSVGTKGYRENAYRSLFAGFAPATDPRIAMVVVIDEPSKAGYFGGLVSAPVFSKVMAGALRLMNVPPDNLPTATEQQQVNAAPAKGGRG
Summary of the method: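 Binding of boronic acid inhibitors to purified Pseudomonas aeruginosa (PA01) PBP3 was measured by fluorescence polarization competition with Bocillin-FL, a fluorescent penicillin V. Reactions of 80 μl contained 0.75 μM PBP3 and 0.1 μM Bocillin-FL in 50 mM Hepes (pH 8.0), 300 mM NaCl and 5% (v/v) glycerol, in black 384-well plates. FP (Excitation 490 nm, Emission 520 nm) was read for up to 60 minutes. EC50 is the concentration that halves PBP-bound Bocillin-FL.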

SMILES | MIC [1] [µg/mL] | EC50 [2] [µM] | MIC [3] [µg/mL] | MIC [4] [µg/mL] | MIC [5] [µg/mL] | MIC [6] [µg/mL] | MIC [7] [µg/mL] | MIC [8] [µg/mL] | MIC [9] [µg/mL] | MIC [10] [µg/mL] | MIC [11] [µg/mL] | MIC [12] [µg/mL] | MIC [13] [µg/mL] | P. aeruginosa PBP3 Potency [14]
CCN1CCN(C(=O)NC(C(=O)N[C@H]2Cc3ccc(SC)c(C(=O)O)c3OB2O)c2csc(N)n2)C(=O)C1=O (stereo partly drawn) [Example 56, (3R)-3-(2-(2-aminothiazol-4-yl)-2-(4-ethyl-2,3-dioxopiperazine-1-carboxamido)acetamido)-2-hydroxy-7-(methylthio)-3,4-dihydro-2H-benzo[e][1,2]oxaborinine-8-carboxylic acid] | > 128 | 30 to 500 | 32 to 64 (≈ 55.5 to 111 µM) | 32 to 64 (≈ 55.5 to 111 µM) | 32 to 64 (≈ 55.5 to 111 µM) | 0.5 to 1 (≈ 0.867 to 1.73 µM) | 8 to 16 (≈ 13.9 to 27.8 µM) | 32 to 64 (≈ 55.5 to 111 µM) | 0.5 to 1 (≈ 0.867 to 1.73 µM) | 32 to 64 (≈ 55.5 to 111 µM) | 8 to 16 (≈ 13.9 to 27.8 µM) | 8 to 16 (≈ 13.9 to 27.8 µM) | > 128 | 
CCN1CCN(C(=O)NC(C(=O)N[C@H]2Cc3ccc(O)c(C(=O)O)c3OB2O)c2ccccc2)C(=O)C1=O (stereo partly drawn) [Example 61, (3R)-3-(2-(4-ethyl-2,3-dioxopiperazine-1-carboxamido)-2-phenylacetamido)-2,7-dihydroxy-3,4-dihydro-2H-benzo[e][1,2]oxaborinine-8-carboxylic acid] | > 128 |  | 32 to 64 (≈ 61 to 122 µM) | > 128 | > 128 | 0.5 to 1 (≈ 0.954 to 1.91 µM) | 8 to 16 (≈ 15.3 to 30.5 µM) | > 128 | 8 to 16 (≈ 15.3 to 30.5 µM) | 32 to 64 (≈ 61 to 122 µM) | 32 to 64 (≈ 61 to 122 µM) | > 128 | > 128 | B (B represents a potency between 30 μM and 500 μM inclusive)
CCN1CCN(C(=O)NC(C(=O)N[C@H]2Cc3ccc(C=NOCCN)c(C(=O)O)c3OB2O)c2csc(N)n2)C(=O)C1=O (stereo partly drawn) [Example 62, (3R)-7-(((2-aminoethoxy)imino)methyl)-3-(2-(2-aminothiazol-4-yl)-2-(4-ethyl-2,3-dioxopiperazine-1-carboxamido)acetamido)-2-hydroxy-3,4-dihydro-2H-benzo[e][1,2]oxaborinine-8-carboxylic acid] | > 128 | > 500 | > 128 | > 128 | > 128 | 32 to 64 (≈ 51.9 to 104 µM) | 32 to 64 (≈ 51.9 to 104 µM) | > 128 | 8 to 16 (≈ 13 to 26 µM) | > 128 | 32 to 64 (≈ 51.9 to 104 µM) | > 128 | > 128 | B (B represents a potency between 30 μM and 500 μM inclusive)
CCN1CCN(C(=O)NC(C(=O)N[C@H]2Cc3ccc(SCC[N+]4(C)CCCC4)c(C(=O)O)c3OB2O)c2csc(N)n2)C(=O)C1=O.O=C([O-])C(F)(F)F (stereo partly drawn) [Example 65, 1-(2-(((3R)-3-(2-(2-aminothiazol-4-yl)-2-(4-ethyl-2,3-dioxopiperazine-1-carboxamido)acetamido)-8-carboxy-2-hydroxy-3,4-dihydro-2H-benzo[e][1,2]oxaborinin-7-yl)thio)ethyl)-1-methylpyrrolidin-1-ium 2,2,2-trifluoroacetate] | > 128 | > 500 | > 128 | > 128 | > 128 | 32 to 64 | > 128 | > 128 | 8 to 16 | > 128 | 32 to 64 | > 128 | > 128 | 
CCN1CCN(C(=O)NC(C(=O)N[C@H]2Cc3ccc(SCCNCCN)c(C(=O)O)c3OB2O)c2csc(N)n2)C(=O)C1=O (stereo partly drawn) [Example 66, (3R)-7-((2-((2-aminoethyl)amino)ethyl)thio)-3-(2-(2-aminothiazol-4-yl)-2-(4-ethyl-2,3-dioxopiperazine-1-carboxamido)acetamido)-2-hydroxy-3,4-dihydro-2H-benzo[e][1,2]oxaborinine-8-carboxylic acid] | > 128 | > 500 | > 128 | > 128 | > 128 | 32 to 64 (≈ 49.3 to 98.7 µM) | 32 to 64 (≈ 49.3 to 98.7 µM) | > 128 | 8 to 16 (≈ 12.3 to 24.7 µM) | > 128 | 32 to 64 (≈ 49.3 to 98.7 µM) | > 128 | > 128 | 
CCN1CCN(C(=O)NC(C(=O)N[C@H]2Cc3ccc(SCCN)c(C(=O)O)c3OB2O)c2csc(N)n2)C(=O)C1=O (stereo partly drawn) [Example 67, (3R)-7-((2-aminoethyl)thio)-3-(2-(2-aminothiazol-4-yl)-2-(4-ethyl-2,3-dioxopiperazine-1-carboxamido)acetamido)-2-hydroxy-3,4-dihydro-2H-benzo[e][1,2]oxaborinine-8-carboxylic acid] | > 128 | 30 to 500 | 32 to 64 (≈ 52.9 to 106 µM) | 32 to 64 (≈ 52.9 to 106 µM) | 32 to 64 (≈ 52.9 to 106 µM) | 0.5 to 1 (≈ 0.826 to 1.65 µM) | 8 to 16 (≈ 13.2 to 26.4 µM) | > 128 | 0.5 to 1 (≈ 0.826 to 1.65 µM) | > 128 | 32 to 64 (≈ 52.9 to 106 µM) | 32 to 64 (≈ 52.9 to 106 µM) | > 128 | 
